# Tests used:
# [1] = system: A549 cells; conditions: toxic at this concentration or higher, ref Zhu et al., 2020; cited from earlier work
# [2] = Solubility in aqueous medium; type: physicochemical; conditions: precipitation observed when DMSO solution was diluted with HBSS
compound,measurement,setting,value
"CC(C)(C)c1cc(C(C)(C)C)c(NC(=O)c2c[nH]c3ccccc3c2=O)cc1O [ivacaftor, Ivacaftor]",Concentration toxic to A549 cells,[1],≥ 8 µg/mL
same,Solubility in aqueous medium,[2],very low solubility

# — publication PMC7904636 (International journal of pharmaceutics, 2021)
